Experimental data published in patent US20160038468A1 (priority 2013, published 2016).
Converted amounts (≈) assume the structure as drawn. Where two headings read alike, the source gives them in different places.

Experiments:
Format in all cases: cell-based
Peptoniphilus harei = test: Agar dilution MIC (CLSI), Peptoniphilus harei vaginal isolates; details: for MIC: read-out: Minimal Inhibitory Concentration (MIC)
Prevotella amnii = test: Agar dilution MIC (CLSI), Prevotella amnii vaginal isolates; details: for MIC: read-out: Minimal Inhibitory Concentration (MIC)
Mobiluncus spp = test: Agar dilution MIC (CLSI), Mobiluncus spp vaginal isolate; details: read-out: Minimal Inhibitory Concentration (MIC)
Prevotella timonensis = test: Agar dilution MIC (CLSI), Prevotella timonensis vaginal isolates; details: for MIC: read-out: Minimal Inhibitory Concentration (MIC)
M. curtisii = test: Agar dilution MIC (CLSI), M. curtisii vaginal isolates; details: 14 samples
Peptoniphilus lacrimalis = test: Agar dilution MIC (CLSI), Peptoniphilus lacrimalis vaginal isolates; details: for MIC: read-out: Minimal Inhibitory Concentration (MIC)
Gardnerella vaginalis = test: Agar dilution MIC (CLSI), Gardnerella vaginalis vaginal isolates; details: for Number of strains with indicated MIC: 100 samples
[1] = Peptoniphilus harei, # tested 23
[2] = Hoylesella timonensis, # tested 33
[3] = Peptoniphilus lacrimalis, # tested 20
[4] = Gardnerella vaginalis, # tested 107

## Cc1ncc([N+](=O)[O-])n1CCO [Metronidazole]
Peptoniphilus harei; # tested 23
  MIC Range: 1 to 4 mg/L
Peptoniphilus harei; Peptoniphilus harei, isolate 426868V D
  MIC: 2 mg/L (≈ 11.7 µM)
Peptoniphilus harei; Peptoniphilus harei, isolate 601098V Q
  MIC: 1 mg/L (≈ 5.84 µM)
Peptoniphilus harei; Peptoniphilus harei, isolate 601203V 8
  MIC: 2 mg/L (≈ 11.7 µM)
Peptoniphilus harei; Peptoniphilus harei, isolate 601212V 15
  MIC: 1 mg/L (≈ 5.84 µM)
Peptoniphilus harei; Peptoniphilus harei, isolate 601233V R
  MIC: 4 mg/L (≈ 23.4 µM)
Peptoniphilus harei; Peptoniphilus harei, isolate 601248V 23
  MIC: 1 mg/L (≈ 5.84 µM)
Peptoniphilus harei; Peptoniphilus harei, isolate 601259V 11
  MIC: 2 mg/L (≈ 11.7 µM)
Peptoniphilus harei; Peptoniphilus harei, isolate 601289V C
  MIC: 2 mg/L (≈ 11.7 µM)
Peptoniphilus harei; Peptoniphilus harei, isolate 601293V 21
  MIC: 1 mg/L (≈ 5.84 µM)
Peptoniphilus harei; Peptoniphilus harei, isolate 601302V F1
  MIC: 2 mg/L (≈ 11.7 µM)
Peptoniphilus harei; Peptoniphilus harei, isolate 601311V R
  MIC: 1 mg/L (≈ 5.84 µM)
Peptoniphilus harei; Peptoniphilus harei, isolate 601326V F
  MIC: 2 mg/L (≈ 11.7 µM)
Peptoniphilus harei; Peptoniphilus harei, isolate 601342V F
  MIC: 1 mg/L (≈ 5.84 µM)
Peptoniphilus harei; Peptoniphilus harei, isolate 601355V D
  MIC: 1 mg/L (≈ 5.84 µM)
Peptoniphilus harei; Peptoniphilus harei, isolate 601365V 14
  MIC: 1 mg/L (≈ 5.84 µM)
Peptoniphilus harei; Peptoniphilus harei, isolate 601374V F
  MIC: 2 mg/L (≈ 11.7 µM)
Peptoniphilus harei; Peptoniphilus harei, isolate 601388V Q
  MIC: 1 mg/L (≈ 5.84 µM)
Peptoniphilus harei; Peptoniphilus harei, isolate 601399V 16
  MIC: 1 mg/L (≈ 5.84 µM)
Peptoniphilus harei; Peptoniphilus harei, isolate 601409V L
  MIC: 1 mg/L (≈ 5.84 µM)
Peptoniphilus harei; Peptoniphilus harei, isolate 601413V 16
  MIC: 2 mg/L (≈ 11.7 µM)
Peptoniphilus harei; Peptoniphilus harei, isolate 601426V D
  MIC: 1 mg/L (≈ 5.84 µM)
Peptoniphilus harei; Peptoniphilus harei, isolate 601430V 22
  MIC: 1 mg/L (≈ 5.84 µM)
Peptoniphilus harei; Peptoniphilus harei, isolate 601539V 25B
  MIC: 2 mg/L (≈ 11.7 µM)
Peptoniphilus harei; [1]
  MIC50: 1 mg/L (≈ 5.84 µM)
  MIC90: 2 mg/L (≈ 11.7 µM)
Prevotella amnii; # tested 33
  MIC Range: 0.25 to 2 mg/L
Prevotella amnii; MIC […], 33 samples
  Number of strains with indicated MIC: 1
Prevotella amnii; Prevotella amnii, isolate 601203 4
  MIC: 1 mg/L (≈ 5.84 µM)
Prevotella amnii; Prevotella amnii, isolate 601256 11
  MIC: 1 mg/L (≈ 5.84 µM)
Prevotella amnii; Prevotella amnii, isolate 601258 25
  MIC: 0.5 mg/L (≈ 2.92 µM)
Prevotella amnii; Prevotella amnii, isolate 601261 E
  MIC: 1 mg/L (≈ 5.84 µM)
Prevotella amnii; Prevotella amnii, isolate 601266 20
  MIC: 0.5 mg/L (≈ 2.92 µM)
Prevotella amnii; Prevotella amnii, isolate 601278 10
  MIC: 1 mg/L (≈ 5.84 µM)
Prevotella amnii; Prevotella amnii, isolate 601287 HH
  MIC: 0.5 mg/L (≈ 2.92 µM)
Prevotella amnii; Prevotella amnii, isolate 601291 41
  MIC: 1 mg/L (≈ 5.84 µM)
Prevotella amnii; Prevotella amnii, isolate 601293 29
  MIC: 1 mg/L (≈ 5.84 µM)
Prevotella amnii; Prevotella amnii, isolate 601305 A
  MIC: 2 mg/L (≈ 11.7 µM)
Prevotella amnii; Prevotella amnii, isolate 601311 K
  MIC: 0.5 mg/L (≈ 2.92 µM)
Prevotella amnii; Prevotella amnii, isolate 601314 19
  MIC: 2 mg/L (≈ 11.7 µM)
Prevotella amnii; Prevotella amnii, isolate 601318 G
  MIC: 1 mg/L (≈ 5.84 µM)
Prevotella amnii; Prevotella amnii, isolate 601336 33
  MIC: 1 mg/L (≈ 5.84 µM)
Prevotella amnii; Prevotella amnii, isolate 601340 37
  MIC: 2 mg/L (≈ 11.7 µM)
Prevotella amnii; Prevotella amnii, isolate 601341 H
  MIC: 1 mg/L (≈ 5.84 µM)
Prevotella amnii; Prevotella amnii, isolate 601350 A
  MIC: 0.5 mg/L (≈ 2.92 µM)
Prevotella amnii; Prevotella amnii, isolate 601365 6
  MIC: 0.25 mg/L (≈ 1.46 µM)
Prevotella amnii; Prevotella amnii, isolate 601368 24
  MIC: 0.5 mg/L (≈ 2.92 µM)
Prevotella amnii; Prevotella amnii, isolate 601369 13
  MIC: 2 mg/L (≈ 11.7 µM)
Prevotella amnii; Prevotella amnii, isolate 601375 L
  MIC: 1 mg/L (≈ 5.84 µM)
Prevotella amnii; Prevotella amnii, isolate 601377 9
  MIC: 1 mg/L (≈ 5.84 µM)
Prevotella amnii; Prevotella amnii, isolate 601379 24
  MIC: 1 mg/L (≈ 5.84 µM)
Prevotella amnii; Prevotella amnii, isolate 601388 G
  MIC: 1 mg/L (≈ 5.84 µM)
Prevotella amnii; Prevotella amnii, isolate 601399 10
  MIC: 1 mg/L (≈ 5.84 µM)
Prevotella amnii; Prevotella amnii, isolate 601405 A
  MIC: 1 mg/L (≈ 5.84 µM)
Prevotella amnii; Prevotella amnii, isolate 601411 L
  MIC: 1 mg/L (≈ 5.84 µM)
Prevotella amnii; Prevotella amnii, isolate 601413 10
  MIC: 1 mg/L (≈ 5.84 µM)
Prevotella amnii; Prevotella amnii, isolate 601418 27
  MIC: 1 mg/L (≈ 5.84 µM)
Prevotella amnii; Prevotella amnii, isolate 601426 A
  MIC: 1 mg/L (≈ 5.84 µM)
Prevotella amnii; Prevotella amnii, isolate 601430 14
  MIC: 1 mg/L (≈ 5.84 µM)
Prevotella amnii; Prevotella amnii, isolate 601434 13
  MIC: 0.5 mg/L (≈ 2.92 µM)
Prevotella amnii; Prevotella amnii, isolate 601458 13
  MIC: 1 mg/L (≈ 5.84 µM)
Prevotella amnii; Prevotella amnii, # tested 33
  MIC50: 1 mg/L (≈ 5.84 µM)
  MIC90: 2 mg/L (≈ 11.7 µM)
Mobiluncus spp
  MIC: 0.03 mg/L (≈ 0.175 µM)
Prevotella timonensis; Hoylesella timonensis, isolate 301212 10
  MIC: 2 mg/L (≈ 11.7 µM)
Prevotella timonensis; Hoylesella timonensis, isolate 601080 5
  MIC: 2 mg/L (≈ 11.7 µM)
Prevotella timonensis; Hoylesella timonensis, isolate 601088 15
  MIC: 2 mg/L (≈ 11.7 µM)
Prevotella timonensis; Hoylesella timonensis, isolate 601093 24
  MIC: 2 mg/L (≈ 11.7 µM)
Prevotella timonensis; Hoylesella timonensis, isolate 601097 S
  MIC: 2 mg/L (≈ 11.7 µM)
Prevotella timonensis; Hoylesella timonensis, isolate 601098 B
  MIC: 2 mg/L (≈ 11.7 µM)
Prevotella timonensis; Hoylesella timonensis, isolate 601157 19
  MIC: 2 mg/L (≈ 11.7 µM)
Prevotella timonensis; Hoylesella timonensis, isolate 601167 13
  MIC: 2 mg/L (≈ 11.7 µM)
Prevotella timonensis; Hoylesella timonensis, isolate 601170 13
  MIC: 2 mg/L (≈ 11.7 µM)
Prevotella timonensis; Hoylesella timonensis, isolate 601175 J
  MIC: 2 mg/L (≈ 11.7 µM)
Prevotella timonensis; Hoylesella timonensis, isolate 601178 19
  MIC: 2 mg/L (≈ 11.7 µM)
Prevotella timonensis; Hoylesella timonensis, isolate 601194 9B
  MIC: 2 mg/L (≈ 11.7 µM)
Prevotella timonensis; Hoylesella timonensis, isolate 601214 A
  MIC: 4 mg/L (≈ 23.4 µM)
Prevotella timonensis; Hoylesella timonensis, isolate 601226 C
  MIC: 2 mg/L (≈ 11.7 µM)
Prevotella timonensis; Hoylesella timonensis, isolate 601234 B
  MIC: 2 mg/L (≈ 11.7 µM)
Prevotella timonensis; Hoylesella timonensis, isolate 601252 B
  MIC: 4 mg/L (≈ 23.4 µM)
Prevotella timonensis; Hoylesella timonensis, isolate 601255 17
  MIC: 2 mg/L (≈ 11.7 µM)
Prevotella timonensis; Hoylesella timonensis, isolate 601266 18
  MIC: 2 mg/L (≈ 11.7 µM)
Prevotella timonensis; Hoylesella timonensis, isolate 601278 12
  MIC: > 128 mg/L
Prevotella timonensis; Hoylesella timonensis, isolate 601281 22
  MIC: 2 mg/L (≈ 11.7 µM)
Prevotella timonensis; Hoylesella timonensis, isolate 601287 H
  MIC: 2 mg/L (≈ 11.7 µM)
Prevotella timonensis; Hoylesella timonensis, isolate 601293 13
  MIC: 4 mg/L (≈ 23.4 µM)
Prevotella timonensis; Hoylesella timonensis, isolate 601367 E
  MIC: 4 mg/L (≈ 23.4 µM)
Prevotella timonensis; Hoylesella timonensis, isolate 601370 13
  MIC: 4 mg/L (≈ 23.4 µM)
Prevotella timonensis; Hoylesella timonensis, isolate 601388 S
  MIC: 4 mg/L (≈ 23.4 µM)
Prevotella timonensis; Hoylesella timonensis, isolate 601401 J
  MIC: 2 mg/L (≈ 11.7 µM)
Prevotella timonensis; Hoylesella timonensis, isolate 601411 S
  MIC: 4 mg/L (≈ 23.4 µM)
Prevotella timonensis; Hoylesella timonensis, isolate 601414 O
  MIC: 4 mg/L (≈ 23.4 µM)
Prevotella timonensis; Hoylesella timonensis, isolate 601422 39
  MIC: 2 mg/L (≈ 11.7 µM)
Prevotella timonensis; Hoylesella timonensis, isolate 601429 11
  MIC: 2 mg/L (≈ 11.7 µM)
Prevotella timonensis; Hoylesella timonensis, isolate 601459 21
  MIC: 2 mg/L (≈ 11.7 µM)
Prevotella timonensis; [2]
  MIC50: 2 mg/L (≈ 11.7 µM)
  MIC90: 4 mg/L (≈ 23.4 µM)
Prevotella timonensis; MIC >[…], 33 samples
  Number of strains with indicated MIC: 1
Prevotella timonensis; number (%) of isolates, # tested 33, resistance: rifaximin >32, metronidazole >32, clindamycin >8 μg/ml
  Resistant: 1 (3) μg/ml
M. curtisii; MIC 64 μg/ml
  Number of strains with indicated MIC: 3
M. curtisii; MIC >[…]
  Number of strains with indicated MIC: 11
Peptoniphilus lacrimalis; # tested 20
  MIC Range: 0.5 to 4 mg/L
Peptoniphilus lacrimalis; Peptoniphilus lacrimalis, isolate 601028V 27A
  MIC: 2 mg/L (≈ 11.7 µM)
Peptoniphilus lacrimalis; Peptoniphilus lacrimalis, isolate 601060V 32A
  MIC: 2 mg/L (≈ 11.7 µM)
Peptoniphilus lacrimalis; Peptoniphilus lacrimalis, isolate 601078V O
  MIC: 1 mg/L (≈ 5.84 µM)
Peptoniphilus lacrimalis; Peptoniphilus lacrimalis, isolate 601084V c
  MIC: 4 mg/L (≈ 23.4 µM)
Peptoniphilus lacrimalis; Peptoniphilus lacrimalis, isolate 601105V 13
  MIC: 4 mg/L (≈ 23.4 µM)
Peptoniphilus lacrimalis; Peptoniphilus lacrimalis, isolate 601139V 17
  MIC: 4 mg/L (≈ 23.4 µM)
Peptoniphilus lacrimalis; Peptoniphilus lacrimalis, isolate 601213V 17
  MIC: 2 mg/L (≈ 11.7 µM)
Peptoniphilus lacrimalis; Peptoniphilus lacrimalis, isolate 601255V 12
  MIC: 1 mg/L (≈ 5.84 µM)
Peptoniphilus lacrimalis; Peptoniphilus lacrimalis, isolate 601261V O
  MIC: 1 mg/L (≈ 5.84 µM)
Peptoniphilus lacrimalis; Peptoniphilus lacrimalis, isolate 601293V 15
  MIC: 1 mg/L (≈ 5.84 µM)
Peptoniphilus lacrimalis; Peptoniphilus lacrimalis, isolate 601296V N
  MIC: 1 mg/L (≈ 5.84 µM)
Peptoniphilus lacrimalis; Peptoniphilus lacrimalis, isolate 601305V K-1
  MIC: 1 mg/L (≈ 5.84 µM)
Peptoniphilus lacrimalis; Peptoniphilus lacrimalis, isolate 601318V E
  MIC: 1 mg/L (≈ 5.84 µM)
Peptoniphilus lacrimalis; Peptoniphilus lacrimalis, isolate 601330V H
  MIC: 1 mg/L (≈ 5.84 µM)
Peptoniphilus lacrimalis; Peptoniphilus lacrimalis, isolate 601336V 47
  MIC: 1 mg/L (≈ 5.84 µM)
Peptoniphilus lacrimalis; Peptoniphilus lacrimalis, isolate 601365V 13
  MIC: 2 mg/L (≈ 11.7 µM)
Peptoniphilus lacrimalis; Peptoniphilus lacrimalis, isolate 601368V 39
  MIC: 0.5 mg/L (≈ 2.92 µM)
Peptoniphilus lacrimalis; Peptoniphilus lacrimalis, isolate 601375V E
  MIC: 1 mg/L (≈ 5.84 µM)
Peptoniphilus lacrimalis; Peptoniphilus lacrimalis, isolate 601388V B
  MIC: 1 mg/L (≈ 5.84 µM)
Peptoniphilus lacrimalis; Peptoniphilus lacrimalis, isolate 601401V I
  MIC: 1 mg/L (≈ 5.84 µM)
Peptoniphilus lacrimalis; [3]
  MIC50: 1 mg/L (≈ 5.84 µM)
  MIC90: 4 mg/L (≈ 23.4 µM)
Gardnerella vaginalis
  activity against G vaginalis: limited activity
Gardnerella vaginalis; [4]
  MIC50: 64 mg/L (≈ 374 µM)
  MIC90: > 128 mg/L
Gardnerella vaginalis; MIC 8 μg/ml
  Number of strains with indicated MIC: 12
Gardnerella vaginalis; MIC 16 μg/ml
  Number of strains with indicated MIC: 16
Gardnerella vaginalis; MIC 32 μg/ml
  Number of strains with indicated MIC: 14
Gardnerella vaginalis; MIC 64 μg/ml
  Number of strains with indicated MIC: 15
Gardnerella vaginalis; MIC >[…]
  Number of strains with indicated MIC: 34
Gardnerella vaginalis; MIC […]
  Number of strains with indicated MIC: 6
